Test results reported in patent US9018172B2, “Modification of peptides via SNAr reactions of thiols with fluorinated aromatics” (Massachusetts Institute of Technology, priority 2012, dated 2015).

Assays:
HEK293T cells = assay: Confocal microscopy cell imaging of FITC-labeled peptide uptake; type: cell-based; conditions: 5 μM, 4 hours
Description: 293T HEK cells were cultured with DMEM with 10% FBS (v/v) in imaging dishes (70K cells/well) in 37° C., 5% CO2 incubator for two days until they are about 70% confluent. Appropriate amounts of peptides 7, 7a, 7b, 8a and 8b dissolved in autoclaved H2O were added to the cells to final concentrations of 5 μM. Peptide 9 was first dissolved in DMSO to make a 200 μM stock and then added to cells to a final concentration of 5 μM. The cells were incubated with the samples for 4 hours at 37° C. and 5% CO2. After incubation, cells were washed 3 times with DPBS and then fixed with 4% formaldehyde in DPBS for 10 minutes. They are then washed 3 times with HBSS and stained with 5 μg/mL wheat germ agglutinin-tetramethylrhodamine conjugate in HBSS for 20 minutes. The cells were subsequently washed with HBSS once and DPBS twice and stained with 5 μg/mL diamidino-2-phenylindole (DAPI) in DPBS for 30 minutes. They were washed 3 times with DPBS and covered in one drop of pri-Gold and cover slide. Images of peptide localization in cells were taken on PerkinElmer Ultraview Spinning Disk Confocal with 30% of its maximum laser power in 488 channel with 500 ms exposure time and 0.5 μm Z-stacking Image processing was done using Volocity software package (PerkinElmer).

[1] = Proteolysis assay with trypsin or chymotrypsin, LC-MS; type: in vitro ADME; conditions: isolated enzyme several chymotrypsin trypsin, pH 8.1; after 10 minutes with protease (trypsin/chymotrypsin), 37° C.; read-out: intact peptide observed
Description: 100 μL of peptide (100 μM) in phosphate buffer (pH 8.1) was mixed and incubated with 40 μL of the protease solution (trypsin—70 μg/mL; chymotrypsin—50 μg/mL) at 37° C. Aliquots of 35 μL were quenched with 55 μL of 1% TFA solution in MeCN and subjected to LC-MS analysis at 10, 25 and 40 minutes respectively. Peptide concentrations at different time points were quantified by integration of the TIC trace relative to the starting peptide sample. Note, that in the case of experiments with unstapled peptide 7, <1% of the intact peptide was observed after 10 minutes.

[2] = Temperature-dependent melting from CD spectra at 222 nm; type: physicochemical; conditions: CD at 222 nm
Description: CD measurements were done with Aviv 202 spectrometer using 1 mm quartz cuvette. Peptide solutions were made by dissolving solid samples in 25% acetonitrile/water mixture, CD spectra of 3a and 3b were measured in acetonitrile, CD spectra of affibodies was collected in 10 mM phosphate buffer. Concentration of affibodies was estimated by UV absorbance measurements at 280 nm. Contribution of the perfluorinated staple in 6a on the absorbance value at 280 nm was taken into account (estimated molar extinction coefficient for [—S—C6F4—S-]˜5000 cm^−1M^−1 from UV measurements of solutions of 6 and 6a) in these measurements. Data processing included solvent background correction (subtraction) and adjustment for pathlength and concentration (MRE=[θ]λ=θobs×1/(10 lcn); θobs=measured ellipticity, θ=mean residual ellipticity in deg×cm^2×dmol^−1, 1=pathlength (cm); c=concentration of peptide (M); n=# of amino acids). α-helicities of the peptides were estimated using previously established methods.

| Molecule | cellular uptake (confocal microscopy) (HEK293T cells) | remaining at 10 min [1] | temperature dependent melting properties [2] |
| --- | --- | --- | --- |
| CC[C@H](C)[C@H](NC(=O)CCNC(=S)Nc1ccc(-c2c3ccc(=O)cc-3oc3cc(O)ccc23)c(C(=O)O)c1)C(=O)N[C@H](C(=O)N[C@@H](Cc1ccccc1)C(=O)N[C@@H](CSCC(N)=O)C(=O)N[C@@H](CC(=O)O)C(=O)N[C@@H](CC(C)C)C(=O)N[C@@H](CC(C)C)C(=O)N[C@@H](CSCC(N)=O)C(=O)N[C@@H](Cc1ccc(O)cc1)C(=O)N[C@@H](Cc1ccc(O)cc1)C(=O)NCC(=O)N[C@@H](CCCCN)C(=O)N[C@@H](CCCCN)C(=O)N[C@@H](CCCCN)C(N)=O)[C@@H](C)O [Peptide 7] | no fluorescent positive cells | < 1% | – |
| Affibody 10a: HER-2 affibody with perfluoroaryl staple at Cys42, Cys46 on the C-terminal helix | – | – | not compromised |
